Test results published in patent US11166958B2, “4-pyrazin-2-ylmethyl-morpholine derivatives and the use thereof as medicament” (Boehringer Ingelheim International GmbH, priority 2018, dated 2021).

What was measured:
NMDA NR1/NR2B receptor = NMDA NR1/NR2B receptor (Homo sapiens (Human), UniProt Q13224); experiment: In vitro NMDA NR1/NR2B cell assay (FLIPR, intracellular calcium induced by glycine/glutamate); format: cell-based; settings: HEK293 NR1/NR2B, 20 μM glycine / 1 μM glutamate, read-out: In vitro NR2B affinity, IC50
Method: A human HEK293 cell line with tetracyclin-inducible expression of NMDA NR1/NR2B receptor was used as a test system for compound efficacy and potency. The cell line was purchased from ChanTest, Catalog #CT6121. Compound activity was determined by measuring the effect of compounds on intracellular calcium concentration induced by glycine/glutamate agonism in a FLIPRtetra system (Molecular Devices).
The cells were obtained as frozen cells in cryo-vials and stored until use at −150° C. Cells were grown in culture medium (DMEM/F12, 10% FBS, 5 μg/mL Blasticidin, 150 μg/mL Zeozin, 500 μg/mL Geneticin). […] For sub-culturing the cells were detached from flasks by Versene. For the assay, cells were detached, washed twice with induction medium (DMEM/F12 without glutamine, 10% FBS, 2 μg/mL Tetracycline, 2 mM Ketamine) and seeded to 384 well pure coat amine plates (Becton Dickinson, 50000 cells per well in 50 μl) 48 h prior to assay in induction medium.
The test compounds were dissolved in 100% DMSO at a concentration of 10 mM and in a first step diluted in DMSO to a concentration of 5 mM, followed by serial dilution steps in 100% DMSO. Dilution factor and number of dilution steps may vary according to needs. Typically 8 different concentrations by 1:5 dilutions were prepared in duplicate, further intermediate dilutions (1:37.5) of the substances were carried out with aqueous assay buffer (137 mM NaCl, 4 mM KCl, 1.8 mM CaCl2), 10 mM HEPES, 10 mM Glucose, pH 7.4) resulting in a compound concentration 3 times above the final test concentration and DMSO at 2.7% resulting in 0.9% final DMSO concentration in the assay.
At the assay day cells were washed 3× with assay buffer (as described above), 10 μL buffer remained in the wells after washing. 10 μL Ca kit loading buffer (AAT Bioquest; prepared from the kit containing the following components: Component A: Fluo-8 NW dissolved in 200 μL DMSO and 20 μl of this solution are mixed with 10 ml buffer prepared out of component B and C, Component B: 10× Pluronic® F127 Plus diluted 1:10 in component C, Component C: HHBS (Hanks with 20 mM Hepes) was added to the cells and the plates were incubated with lid for 60 minutes at room temperature. 20 μl assay buffer containing 60 μM glycine (20 μM final) and 3 μM glutamate (1 μM final) was added to column 1-23, column 24 got assay buffer without glycine/glutamate to serve as negative unstimulated control. Fluorescence (indicating the calcium influx as a result of the NR1/NR2B ion channel activation) was read on the FLIPRtetra device for 60 seconds to monitor the glutamate induced effects. After 2 minutes 20 μL of compound dilution prepared as described above or controls (row 1-22) in assay buffer were carefully added to the wells. […] The average of 2 measurements at 5 minutes and 5 min 10 seconds after compound addition is calculated and further used for IC50 calculations. Each assay microtiter compound dilution plate contained wells (in column 23 or 24) with DMSO controls instead of compound as controls for glycine/glutamate induced fluorescence (high controls) and wells with 1 μM of a reference NR2B NAM as low controls (Compound 22; reference: Layton, Mark E et al, ACS Chemical Neuroscience 2011, 2(7), 352-362).
The output file of the reader contains the well number and measured average fluorescence units. For data evaluation and calculation, the measurement of the low control was set as 0% control and the measurement of the high control was set as 100% control. The IC50 values were calculated using the standard 4 parameter logistic regression formula. Calculation: [y=(a−d)/(1+(x/c)^b)+d], a=low value, d=high value; x=conc M; c=IC50 M; b=slope.

human MDR1 (P-gp) = human MDR1 (P-gp) (Homo sapiens (Human), UniProt P08183); experiment: MDCK assay P-gp: permeability across MDCK-MDR1 monolayers; format: in vitro ADME; settings: for Papp A→B at 2 h: MDCK-MDR1, apical-to-basal, pH 7.4; for efflux ratio at 2 h: pH 7.4, MDCK-MDR1, Papp (b-a) / Papp (a-b), read-out: efflux ratio PEBA/PEAB
Method: The MDCK assays provide information on the potential of a compound to pass the blood brain barrier. Permeability measurements across polarized, confluent MDCK-MDR1 cell monolayers grown on permeable filter supports are used as an in vitro absorption model: apparent permeability coefficients (PE) of the compounds across the MDCK-MDR1 cell monolayers are measured (pH 7.4, 37° C.) in apical-to-basal (AB) and basal-to-apical (BA) transport direction. The AB permeability (PEAB) represents drug absorption from the blood into the brain and the BA permeability (PEBA) drug efflux from the brain back into the blood via both, passive permeability as well as active transport mechanisms mediated by efflux and uptake transporters that are expressed on the MDCK-MDR1 cells, predominantly by the overexpressed human MDR1. Identical or similar permeabilities in both transport directions indicate passive permeation (PEBA/PEAB≤1), vectorial permeability points to additional active transport mechanisms. Higher PEBA than PEAB (PEBA/PEAB>5) indicates the involvement of active efflux mediated by MDR1, which might compromise the goal to achieve sufficient brain exposure. Therefore, this assay provides valuable support for selection of compounds applicable for further in vivo testing. High permeability not limited by efflux at the blood brain barrier is a favourable characteristic for compounds that are to be used for drugs acting primarily in the CNS.
Apparent permeability coefficients (Papp) of the compounds across the MDCK-MDR1 monolayers (MDCKII cells transfected with human MDR1 cDNA expression plasmid) are measured in apical-to-basal (AB) and basal-to-apical (BA) direction.
MDCK-MDR1 cells (6×10^5 cells/cm^2) are seeded on filter inserts (Corning, Transwell, polycarbonate, 0.4 μm pore size) and cultured for 9 to 10 days. Compounds dissolved in DMSO stock solution (1-20 mM) are diluted with HTP-4 aqueous buffer (128.13 mM NaCl, 5.36 mM KCl, 1 mM MgSO4, 1.8 mM CaCl2, 4.17 mM NaHCO3, 1.19 mM Na2HPO4, 0.41 mM NaH2PO4, 15 mM HEPES, 20 mM glucose, pH 7.4) supplemented with 0.25% BSA to prepare the transport solutions (final concentration: 1 or 10 μM, final DMSO<=0.5%). The transport solution is applied to the apical or basolateral donor side for measuring A-B or B-A permeability, respectively. The receiver side contains HTP-4 buffer supplemented with 0.25% BSA. Samples are collected at the start and end of experiment from the donor and at various time intervals for up to 2 hours also from the receiver side for concentration measurement by HPLC-MS/MS (RapidFire High-throughput MS System (Agilent) coupled to QTrap 6500 (AB Sciex) or TSQ Vantage (Thermo Scientific)). Sampled receiver volumes are replaced with fresh receiver solution. Efflux ratio is calculated dividing the Papp (b-a) values by the Papp (a-b) values.

human MDR1 (P-gp), sequence (P08183 whole entry): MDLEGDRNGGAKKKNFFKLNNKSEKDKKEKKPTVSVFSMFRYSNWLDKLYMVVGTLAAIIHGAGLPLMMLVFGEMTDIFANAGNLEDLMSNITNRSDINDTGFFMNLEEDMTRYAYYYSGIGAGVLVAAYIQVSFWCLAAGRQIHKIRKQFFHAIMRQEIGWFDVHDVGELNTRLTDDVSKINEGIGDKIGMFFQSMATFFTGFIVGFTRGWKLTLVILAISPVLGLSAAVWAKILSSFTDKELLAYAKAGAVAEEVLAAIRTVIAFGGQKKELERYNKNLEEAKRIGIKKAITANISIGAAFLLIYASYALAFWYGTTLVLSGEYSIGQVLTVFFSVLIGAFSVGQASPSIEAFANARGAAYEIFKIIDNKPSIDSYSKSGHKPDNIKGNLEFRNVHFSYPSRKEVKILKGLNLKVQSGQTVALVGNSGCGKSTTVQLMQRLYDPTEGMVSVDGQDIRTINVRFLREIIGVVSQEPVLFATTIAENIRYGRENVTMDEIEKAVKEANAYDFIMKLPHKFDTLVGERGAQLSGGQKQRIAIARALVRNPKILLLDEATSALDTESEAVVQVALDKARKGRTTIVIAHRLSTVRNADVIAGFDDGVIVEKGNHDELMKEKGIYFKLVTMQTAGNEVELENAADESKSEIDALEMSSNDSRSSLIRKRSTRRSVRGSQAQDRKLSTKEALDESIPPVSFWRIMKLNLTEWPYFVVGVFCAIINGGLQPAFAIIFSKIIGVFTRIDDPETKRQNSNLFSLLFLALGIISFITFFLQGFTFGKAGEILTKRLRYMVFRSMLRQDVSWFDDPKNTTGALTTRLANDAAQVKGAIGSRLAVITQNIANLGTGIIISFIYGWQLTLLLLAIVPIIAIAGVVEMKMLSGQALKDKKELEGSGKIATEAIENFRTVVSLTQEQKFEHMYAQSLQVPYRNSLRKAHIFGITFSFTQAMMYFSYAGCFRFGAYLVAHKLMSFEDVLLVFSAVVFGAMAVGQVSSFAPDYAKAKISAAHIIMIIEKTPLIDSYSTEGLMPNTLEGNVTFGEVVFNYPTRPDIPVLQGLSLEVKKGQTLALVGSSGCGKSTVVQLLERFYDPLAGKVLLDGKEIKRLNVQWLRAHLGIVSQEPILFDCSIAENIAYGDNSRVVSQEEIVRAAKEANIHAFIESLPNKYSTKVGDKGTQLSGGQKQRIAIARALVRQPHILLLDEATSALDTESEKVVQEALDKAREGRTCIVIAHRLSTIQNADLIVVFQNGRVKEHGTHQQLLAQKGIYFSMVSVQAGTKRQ
NMDA NR1/NR2B receptor, sequence (Q13224 27-1484, other chains not shown): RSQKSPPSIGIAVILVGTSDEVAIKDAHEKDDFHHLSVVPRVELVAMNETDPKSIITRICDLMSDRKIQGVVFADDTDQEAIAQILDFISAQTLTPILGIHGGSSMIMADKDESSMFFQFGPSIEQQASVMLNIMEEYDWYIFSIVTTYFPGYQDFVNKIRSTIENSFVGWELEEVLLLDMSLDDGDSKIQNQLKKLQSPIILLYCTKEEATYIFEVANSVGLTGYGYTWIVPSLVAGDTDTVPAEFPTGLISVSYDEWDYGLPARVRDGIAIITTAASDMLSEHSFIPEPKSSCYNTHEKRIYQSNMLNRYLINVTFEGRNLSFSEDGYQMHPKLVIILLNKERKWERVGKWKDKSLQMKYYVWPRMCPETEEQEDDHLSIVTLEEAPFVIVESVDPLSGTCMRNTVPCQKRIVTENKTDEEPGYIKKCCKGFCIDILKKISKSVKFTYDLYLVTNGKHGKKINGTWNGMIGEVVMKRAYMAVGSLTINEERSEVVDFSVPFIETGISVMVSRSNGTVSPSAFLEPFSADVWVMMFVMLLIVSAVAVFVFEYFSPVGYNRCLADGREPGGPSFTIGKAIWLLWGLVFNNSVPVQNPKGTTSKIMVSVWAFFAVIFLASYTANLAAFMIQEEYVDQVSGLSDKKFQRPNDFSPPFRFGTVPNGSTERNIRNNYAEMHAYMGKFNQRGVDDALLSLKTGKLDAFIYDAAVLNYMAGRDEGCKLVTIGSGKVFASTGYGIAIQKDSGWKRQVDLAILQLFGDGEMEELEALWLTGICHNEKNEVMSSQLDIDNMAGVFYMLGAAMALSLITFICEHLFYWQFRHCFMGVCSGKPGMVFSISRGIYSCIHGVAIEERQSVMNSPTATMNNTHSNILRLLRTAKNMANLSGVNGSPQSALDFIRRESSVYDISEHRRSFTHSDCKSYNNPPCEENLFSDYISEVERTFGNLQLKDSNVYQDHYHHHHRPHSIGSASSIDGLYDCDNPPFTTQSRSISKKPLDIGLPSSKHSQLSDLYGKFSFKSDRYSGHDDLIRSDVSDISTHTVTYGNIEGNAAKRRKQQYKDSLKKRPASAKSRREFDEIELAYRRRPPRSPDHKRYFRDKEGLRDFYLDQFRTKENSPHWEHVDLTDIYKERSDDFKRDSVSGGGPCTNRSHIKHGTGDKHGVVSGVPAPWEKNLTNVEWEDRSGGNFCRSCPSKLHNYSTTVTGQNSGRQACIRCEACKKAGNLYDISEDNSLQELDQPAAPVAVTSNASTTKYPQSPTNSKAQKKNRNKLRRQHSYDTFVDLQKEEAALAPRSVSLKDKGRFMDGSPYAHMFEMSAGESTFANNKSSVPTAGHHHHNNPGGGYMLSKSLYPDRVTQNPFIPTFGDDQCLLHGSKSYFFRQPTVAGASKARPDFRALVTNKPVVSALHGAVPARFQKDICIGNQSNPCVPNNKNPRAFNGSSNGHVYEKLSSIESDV

| IC50 (NMDA NR1/NR2B receptor) [nM] | Papp A→B at 2 h (human MDR1 (P-gp)) [×10⁻⁶ cm/s] | efflux ratio at 2 h (human MDR1 (P-gp)) | Structure (SMILES) |
| --- | --- | --- | --- |
| 210 | 62 | 0.9 | CNC(=O)[C@@H]1CN(Cc2cnc(Oc3ccccc3F)cn2)CCO1 [Example 9] |
| 807 | 59 | 0.7 | CCNC(=O)[C@@H]1CN(Cc2cnc(Oc3ccccc3Cl)cn2)CCO1 [Example 33] |
| 690 | 75 | 0.7 | CNC(=O)[C@@H]1CN(Cc2cnc(Oc3ccc(C)cc3)cn2)CCO1 [Example 3] |
| 1000 | 66 | 0.7 | CNC(=O)[C@@H]1CN(Cc2cnc(Oc3ccc(Cl)cc3)cn2)CCO1 [Example 7] |
| 856 | 70 | 0.6 | CNC(=O)[C@@H]1CN(Cc2cnc(Oc3ccc(F)cc3C)cn2)CCO1 [Example 8] |
| 1200 | 61 | 0.7 | CNC(=O)[C@@H]1CN(Cc2cnc(Oc3ccc(C)cc3C)cn2)CCO1 [Example 4] |
| 968 | 59 | 0.7 | CNC(=O)[C@@H]1CN(Cc2cnc(Oc3ccc(F)cc3)cn2)CCO1 [Example 1] |
| 595 | 81 | 0.4 | CCNC(=O)[C@@H]1CN(Cc2cnc(Oc3ccc(F)cc3F)cn2)CCO1 [Example 30] |
| 524 | 66 | 0.6 | CCNC(=O)[C@@H]1CN(Cc2cnc(Oc3ccc(C)cc3F)cn2)CCO1 [Example 31] |
| 110 | 59 | 0.8 | CNC(=O)[C@@H]1CN(Cc2cnc(Oc3ccc(Cl)cc3F)cn2)CCO1 [Example 5] |
| 123 | 76 | 0.6 | CNC(=O)[C@@H]1CN(Cc2cnc(Oc3ccc(C)cc3F)cn2)CCO1 [Example 2] |
| 87 | 71 | 0.8 | CNC(=O)[C@@H]1CN(Cc2cnc(Oc3ccc(F)cc3F)cn2)CCO1 [Example 6] |
| 222 | 61 | 0.8 | CNC(=O)[C@@H]1CN(Cc2cnc(Oc3ccccc3Cl)cn2)CCO1 [Example 18] |
